pEC50, pIC50, pKi: −log10 of the molar value. Counter-ions that a name gives are not always drawn.
Columns and labels:
CLL = conditions: average; read-out: average EC50, apoptosis in CLL; cited from earlier work
[1] = test system: BCL-2-dependent acute lymphoblastic leukemia (ALL) cell line RS4; 11 with G101V mutation; assay: In vitro anti-proliferation assay (ATPlite) in RS4; 11 with G101V mutation; type: cell-based; conditions: about 72 hours incubation, medium with 5% FBS or 10% normal human serum, ATPlite luminescence
Method in brief: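 About 1×10^4 cells per well exposed to a compound dose range for about 72 h in medium with 5% FBS or 10% normal human serum. ATP content read by ATPlite luminescence after lysis. IC50 derived from dose-response.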

DoHH2 xenograft = conditions: single agent or in combination with Bendamustine and other agents; cited from earlier work
Granta-519 xenograft = conditions: single agent or in combination with Bendamustine and other agents; cited from earlier work
[2] = test system: CLL who have 17p deletion; conditions: Human Phase I and II data; cited from earlier work
RS4; 11 cells = conditions: cited from earlier work
RS4; 11 xenografts = conditions: single dose of 100 mg/kg; cited from earlier work
Mcl-1 = Mcl-1 (Homo sapiens (Human), UniProt Q07820); conditions: cited from earlier work
Sequence of Mcl-1 (Q07820 whole entry): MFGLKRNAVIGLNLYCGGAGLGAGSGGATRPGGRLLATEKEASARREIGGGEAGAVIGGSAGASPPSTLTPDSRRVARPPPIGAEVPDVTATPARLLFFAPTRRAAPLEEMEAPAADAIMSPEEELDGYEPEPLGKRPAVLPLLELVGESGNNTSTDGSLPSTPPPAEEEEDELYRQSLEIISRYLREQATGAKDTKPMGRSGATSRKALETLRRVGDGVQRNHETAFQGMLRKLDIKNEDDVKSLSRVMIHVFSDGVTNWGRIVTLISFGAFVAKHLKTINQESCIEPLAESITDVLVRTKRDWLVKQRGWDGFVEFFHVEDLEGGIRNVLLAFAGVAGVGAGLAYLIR

[3] = test system: xenograft models of small-cell lung cancer and acute lymphoblastic leukemia; conditions: oral administration, alone; cited from earlier work
circulating platelets = conditions: clinical trial, patients; cited from earlier work
SCLC H146 cell line = conditions: read-out: IC50 against SCLC H146 cell line; cited from earlier work
[4] = in vivo; cited from earlier work
H345 xenograft = conditions: 100 mg/kg/day, H345 xenograft model; cited from earlier work
Bcl-w = Bcl-w (Homo sapiens (Human), UniProt Q92843); conditions: cited from earlier work
Sequence of Bcl-w (Q92843 whole entry): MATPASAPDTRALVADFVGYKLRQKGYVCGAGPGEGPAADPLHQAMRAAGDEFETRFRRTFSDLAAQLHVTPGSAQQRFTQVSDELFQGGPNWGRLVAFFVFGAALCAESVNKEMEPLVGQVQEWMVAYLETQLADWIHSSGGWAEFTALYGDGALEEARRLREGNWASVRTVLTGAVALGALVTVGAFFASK

[5] = cited from earlier work
established tumors = conditions: mouse, in vivo; cited from earlier work
Bcl-2 = Bcl-2 (Homo sapiens (Human), UniProt P10415); assay: Bcl-2 competition binding (fluorescence polarization) assay; conditions: fluorescein labeled BH3 peptide 15 nM, Bcl-2 protein 30 nM, 3 hours of incubation at room temperature
Sequence of Bcl-2 (P10415 whole entry): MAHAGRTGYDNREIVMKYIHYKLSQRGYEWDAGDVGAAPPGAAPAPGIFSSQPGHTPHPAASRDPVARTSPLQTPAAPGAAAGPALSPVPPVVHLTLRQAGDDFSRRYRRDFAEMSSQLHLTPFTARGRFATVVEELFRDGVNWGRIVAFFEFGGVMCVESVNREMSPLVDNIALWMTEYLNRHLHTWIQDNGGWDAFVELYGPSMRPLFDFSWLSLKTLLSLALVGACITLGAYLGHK
Method in brief: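 Fluorescence polarization competition of 15 nM labeled 23-mer BH3 peptide with 30 nM purified Bcl-2, in 20 mM Hepes pH 7.0, 50 mM KCl, 5 mM MgCl2, 20 mM Na2MoO4, 0.1 mg/ml bovine gamma globulin, 0.01% NP40. Compounds 20 μM to 2 nM final; mP read after 3 h at room temperature, background-subtracted. IC50 from sigmoidal dose-response fit.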

## CC1(C)CCC(CN2CCN(c3ccc(C(=O)NS(=O)(=O)c4ccc(NCC5CCOCC5)c([N+](=O)[O-])c4)c(Oc4cnc5[nH]ccc5c4)c3)CC2)=C(c2ccc(Cl)cc2)C1 [ABT-199]
CLL
  pEC50: 8.52
[1]; RS4-11
  pIC50: 5.92
DoHH2 xenograft
  xenograft growth DoHH2: inhibits xenograft growth
Granta-519 xenograft
  xenograft growth Granta-519: inhibits xenograft growth
[2]
  clinical efficacy: highly efficacious
RS4; 11 cells
  pEC50: 8.10
RS4; 11 cells; cytochrome c release, caspase activation, accumulation of sub-G0/G1 DNA
  apoptosis in RS4; 11 cells: induces a rapid apoptosis
RS4; 11 xenografts
  maximal tumor growth inhibition: 95%
  tumor growth delay: 152%
Mcl-1
  activity to Mcl-1: no activity

## CC1(C)CCC(c2ccc(Cl)cc2)=C(CN2CCN(c3ccc(C(=O)NS(=O)(=O)c4ccc(N[C@H](CCN5CCOCC5)CSc5ccccc5)c(S(=O)(=O)C(F)(F)F)c4)cc3)CC2)C1 [ABT-263]
[3]
  tumor regression: complete tumor regressions
Circulating platelets
  effect on number of circulating platelets: rapid, concentration-dependent decrease in the number of circulating platelets
SCLC H146 cell line
  pIC50: 6.96
[4]
  oral bioavailability: orally bioavailable
H345 xenograft
  TGI: 80%
  treated tumors indicating at least a 50% reduction in tumor volume: 20%
Bcl-w
  pKi: 9.00

## CN(C)CC[C@H](CSc1ccccc1)Nc1ccc(S(=O)(=O)NC(=O)c2ccc(N3CCN(Cc4ccccc4-c4ccc(Cl)cc4)CC3)cc2)cc1[N+](=O)[O-] [ABT-737]
[5]
  aqueous solubility: low aqueous solubility
[4]
  oral bioavailability: not orally bioavailable
Established tumors
  efficacy in animal models: improves survival, causes regression of established tumors, and produces cures in a high percentage of the mice

## CC(C)Oc1ccccc1[C@@H]1CCCN1C1CC2(CCN(c3ccc(C(=O)NS(=O)(=O)c4ccc(NCC5CCOCC5)c([N+](=O)[O-])c4)c(N4c5cc6cc[nH]c6nc5O[C@H]5COCC[C@@H]54)c3)CC2)C1 [Example 67, 2-[(3R,8S)-2,5-dioxa-9,15,17-triazatetracyclo[8.7.0.0^{3,8}.0^{12,16}]heptadeca-1(10),11,13,16-tetraen-9-yl]-4-{2-[(2S)-2-(2-isopropoxyphenyl)pyrrolidin-1-yl]-7-azaspiro[3.5]nonan-7-yl}-N-{3-nitro-4-[(oxan-4-ylmethyl)amino]benzenesulfonyl}benzamide hydrochloride]
[1]; hydrochloride
  pIC50: 7.30
Bcl-2; hydrochloride
  pIC50: 9.64

## Cc1ccccc1[C@@H]1CCCN1C1CC2(CCN(c3ccc(C(=O)NS(=O)(=O)c4ccc(NCC5CCOCC5)c([N+](=O)[O-])c4)c(N4C[C@H]5CCOC[C@@H]5Oc5nc6[nH]ccc6cc54)c3)CC2)C1 [Example 68, 2-[(3R,8R)-2,5-dioxa-10,16,18-triazatetracyclo[9.7.0.0^{3,8}.0^{13,17}]octadeca-1(11),12,14,17-tetraen-10-yl]-4-{2-[(2S)-2-(2-methylphenyl)pyrrolidin-1-yl]-7-azaspiro[3.5]nonan-7-yl}-N-{3-nitro-4-[(oxan-4-ylmethyl)amino]benzenesulfonyl}benzamide]
[1]
  pIC50: 7.39
Bcl-2
  pIC50: 9.52

From patent US20240166646A1, “1H-PYRROLO[2,3-B]PYRIDINE DERIVATIVES AS BCL-2 INHIBITORS FOR THE TREATMENT OF NEOPLASTIC AND AUTOIMMUNE DISEASES” (Newave Pharmaceutical Inc., priority 2020, published 2024)
